The values below come from ChEMBL document CHEMBL5113424, “Identification of small-molecule urea derivatives as PTPC modulators targeting the c subunit of F1/Fo-ATP synthase” (Bioorg Med Chem Lett, 2022).

Structures are written as SMILES. Activity calls are given as the source filed them. No cut-off for these calls is given here.

The subject of assay [1] is AC16 [Human hybrid]. As to the kind of experiment: Inhibition of PTPC in human AC16 cells at 1 uM measured by calcein-cobalt assay relative to control. It is filed as cell-based.
In assay [2] the test system is AC16 [Human hybrid]. Description: Activation of PTPC in human AC16 cells at 1 uM measured by calcein-cobalt assay relative to control. The class given is cell-based.
The next assay is filed under the species Homo sapiens. Description: Binding affinity to F1F0-ATP synthase subunit C (unknown origin) measured by cellular thermal shift assay (CETSA).

The term inhibition denotes the percentage by which the read-out fell short of the control.

Take `O=C(NC1CCCC1)NC1CCCC1`: the inhibition in the assay on AC16 [Human hybrid] [1] is 16.4%.

In the case of `CC(C)(C)OC(=O)NC1CCCCC1`, in the assay on AC16 [Human hybrid] [2] (filed as activator), the inhibition was 42.5%.

Regarding `O=C(NC1CCCCC1)NC1CCCCC1`, the inhibition in the assay with AC16 [Human hybrid] [1] was 28%. The outcome in the assay filed under Homo sapiens was Active.

As to `COc1ccc(NC(=O)Nc2ccccc2)cc1`, the inhibition with AC16 [Human hybrid] [1] was 4.6%.

For `S=C(NC1CCCCC1)NC1CCCCC1`, in the assay on AC16 [Human hybrid] [2], the inhibition is 32.4%.

As for `O=C(NCc1ccccc1)NCc1ccccc1`, in the assay on AC16 [Human hybrid] [2], the inhibition was 30.4%.

For the compound `COc1ccc(NC(=O)Nc2ccc(OC)cc2)cc1`, the inhibition in the assay with AC16 [Human hybrid] [2] (filed as activator) is 53.6%.

Regarding `S=C(Nc1ccccc1)NC1CCCCC1`, in the assay with AC16 [Human hybrid] [2], the inhibition was 3%.

For `O=C(NC1CC1)NC1CC1`, in the assay with AC16 [Human hybrid] [1], the inhibition is 3.87%.

On to `CC(C)(C)NC(=O)NC1CCCCC1`, for which the inhibition in the assay on AC16 [Human hybrid] [1] was 43.2%.

As for `N#Cc1ccc(NC(=O)Nc2ccc(C#N)cc2)cc1`, in the assay with AC16 [Human hybrid] [1], the inhibition was 25.4%.

For the compound `S=C(NCc1ccccc1)NCc1ccccc1`, the inhibition with AC16 [Human hybrid] [2] was 37.2%.

As for `CCOC(=O)c1ccc(NC(=O)Nc2ccc(C(=O)OCC)cc2)cc1`, in the assay on AC16 [Human hybrid] [1], the inhibition was 9.75%.

Take `C(=NC1CCCCC1)=NC1CCCCC1`: the inhibition result with AC16 [Human hybrid] [1] was “Active”.

On to `O=C(Nc1ccccc1)Nc1ccccc1`, for which the inhibition with AC16 [Human hybrid] [1] was 28.1%.
